Assay results taken from ChEMBL document CHEMBL5518193, “Discovery of N-alkyl-N-benzyl thiazoles as novel TRPC antagonists for the treatment of glioblastoma multiforme” (Eur J Med Chem, 2024).
Activity calls are given as the source filed them. No cut-off for these calls is given here.

Assays:
[1] = molecular target: T1, Short transient receptor potential channel 6 (Homo sapiens, UniProt Q9Y210); assay: Antagonist activity at TRPC6 (unknown origin) assessed as inhibition of channel activity
T1 sequence (Q9Y210 whole entry): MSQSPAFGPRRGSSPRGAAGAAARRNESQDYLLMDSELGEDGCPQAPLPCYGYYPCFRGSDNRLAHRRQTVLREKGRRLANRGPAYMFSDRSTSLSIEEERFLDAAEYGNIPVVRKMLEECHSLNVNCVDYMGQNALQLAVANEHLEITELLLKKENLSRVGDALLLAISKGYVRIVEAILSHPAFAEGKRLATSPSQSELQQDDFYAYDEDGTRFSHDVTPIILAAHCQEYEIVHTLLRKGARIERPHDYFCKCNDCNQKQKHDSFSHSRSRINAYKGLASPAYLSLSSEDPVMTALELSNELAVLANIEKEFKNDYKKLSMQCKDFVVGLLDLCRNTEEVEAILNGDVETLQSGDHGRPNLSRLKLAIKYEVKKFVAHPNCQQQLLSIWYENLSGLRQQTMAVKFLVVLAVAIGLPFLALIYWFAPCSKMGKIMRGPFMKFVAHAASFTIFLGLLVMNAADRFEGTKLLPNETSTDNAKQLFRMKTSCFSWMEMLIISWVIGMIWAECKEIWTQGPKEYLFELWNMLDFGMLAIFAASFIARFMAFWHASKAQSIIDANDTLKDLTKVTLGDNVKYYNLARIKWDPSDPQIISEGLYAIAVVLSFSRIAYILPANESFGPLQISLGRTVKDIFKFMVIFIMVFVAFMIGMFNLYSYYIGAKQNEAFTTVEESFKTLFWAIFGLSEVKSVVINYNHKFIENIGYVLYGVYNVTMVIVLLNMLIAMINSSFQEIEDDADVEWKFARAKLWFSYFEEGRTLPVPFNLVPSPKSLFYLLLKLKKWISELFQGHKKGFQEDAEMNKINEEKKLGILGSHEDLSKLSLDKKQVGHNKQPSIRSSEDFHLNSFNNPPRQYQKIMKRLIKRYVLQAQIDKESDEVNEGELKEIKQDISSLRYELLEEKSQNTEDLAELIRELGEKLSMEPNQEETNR

[2] = molecular target: T2, Short transient receptor potential channel 3 (Homo sapiens, UniProt Q13507); assay: Antagonist activity at TRPC3 (unknown origin) assessed as inhibition of channel activity
T2 sequence (Q13507 whole entry): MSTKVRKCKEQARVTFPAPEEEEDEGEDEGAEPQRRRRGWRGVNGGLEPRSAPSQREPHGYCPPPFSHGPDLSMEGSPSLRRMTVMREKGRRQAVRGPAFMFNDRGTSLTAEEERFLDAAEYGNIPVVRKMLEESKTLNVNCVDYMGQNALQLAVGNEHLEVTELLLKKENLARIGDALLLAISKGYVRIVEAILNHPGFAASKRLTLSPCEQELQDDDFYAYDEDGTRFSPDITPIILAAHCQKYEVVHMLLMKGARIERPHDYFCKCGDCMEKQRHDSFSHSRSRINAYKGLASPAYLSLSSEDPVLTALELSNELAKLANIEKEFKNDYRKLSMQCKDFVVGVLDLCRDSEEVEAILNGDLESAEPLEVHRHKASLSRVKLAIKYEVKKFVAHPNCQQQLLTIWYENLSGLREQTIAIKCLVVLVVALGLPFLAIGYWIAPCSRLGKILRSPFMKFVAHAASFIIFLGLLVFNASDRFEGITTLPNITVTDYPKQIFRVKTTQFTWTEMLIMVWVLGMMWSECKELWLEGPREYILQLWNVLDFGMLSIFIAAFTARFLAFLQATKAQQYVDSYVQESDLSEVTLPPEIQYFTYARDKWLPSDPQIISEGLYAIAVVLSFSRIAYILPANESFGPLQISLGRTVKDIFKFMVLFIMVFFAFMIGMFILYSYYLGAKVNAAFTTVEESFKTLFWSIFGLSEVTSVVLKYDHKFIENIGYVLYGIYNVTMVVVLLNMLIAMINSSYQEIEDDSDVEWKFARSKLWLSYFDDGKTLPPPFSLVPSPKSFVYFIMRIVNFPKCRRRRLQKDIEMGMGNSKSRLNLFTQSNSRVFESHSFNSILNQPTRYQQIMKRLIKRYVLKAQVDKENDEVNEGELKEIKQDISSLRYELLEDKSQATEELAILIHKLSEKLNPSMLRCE

[3] = molecular target: T3, Short transient receptor potential channel 6 (Mus musculus) (UniProt Q61143); assay: Antagonist activity at mouse TRPC6 stably expressed in HEK293 cells assessed as inhibition of calcium influx at 10 uM by calcium fluorescence assay relative to control; assay type: cell-based
T3 sequence (whole entry): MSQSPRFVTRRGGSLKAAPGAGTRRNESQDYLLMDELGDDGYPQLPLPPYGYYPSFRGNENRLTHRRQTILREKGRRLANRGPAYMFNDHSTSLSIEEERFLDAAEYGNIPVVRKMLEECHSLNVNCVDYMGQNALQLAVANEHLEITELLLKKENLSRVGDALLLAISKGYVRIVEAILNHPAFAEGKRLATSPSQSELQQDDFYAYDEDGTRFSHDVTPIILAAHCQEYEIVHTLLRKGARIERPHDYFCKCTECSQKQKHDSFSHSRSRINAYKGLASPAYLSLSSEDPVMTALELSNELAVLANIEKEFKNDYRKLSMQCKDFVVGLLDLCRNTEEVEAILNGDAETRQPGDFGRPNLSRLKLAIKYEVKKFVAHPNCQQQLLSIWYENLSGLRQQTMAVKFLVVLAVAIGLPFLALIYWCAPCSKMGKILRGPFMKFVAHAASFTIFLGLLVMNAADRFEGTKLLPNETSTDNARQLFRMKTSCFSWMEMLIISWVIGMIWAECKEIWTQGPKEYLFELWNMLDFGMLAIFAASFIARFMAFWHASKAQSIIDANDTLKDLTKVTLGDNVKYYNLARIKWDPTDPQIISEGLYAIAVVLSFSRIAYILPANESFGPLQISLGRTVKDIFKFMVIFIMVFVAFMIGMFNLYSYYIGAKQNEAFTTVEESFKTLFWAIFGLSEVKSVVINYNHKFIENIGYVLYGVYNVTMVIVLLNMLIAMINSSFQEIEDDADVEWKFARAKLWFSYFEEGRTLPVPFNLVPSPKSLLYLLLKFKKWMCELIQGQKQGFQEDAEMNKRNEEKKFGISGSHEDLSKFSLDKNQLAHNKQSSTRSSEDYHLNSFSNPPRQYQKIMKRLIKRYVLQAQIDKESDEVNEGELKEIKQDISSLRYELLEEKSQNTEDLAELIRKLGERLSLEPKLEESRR

[4] = molecular target: T4, Short transient receptor potential channel 6 (Homo sapiens) (UniProt Q9Y210); assay: Antagonist activity at human TRPC6 assessed as inhibition of channel activity at 10 uM relative to control; conditions: filed as antagonist
T4 sequence (whole entry): T1 sequence (Q9Y210 whole entry)

U-87 MG = assay: Antitumor activity against human U87 cells xenografted in BALB/c nude mouse assessed as tumor growth inhibition at 50 mg/kg/day administered as liposome encapsulated form for 15 days and measured every 3 days by vernier caliper; assay type: functional, U-87MG ATCC; conditions: 360 h, time 15 day, read-out: TGI
[5] = molecular target: T3, Short transient receptor potential channel 6 (Mus musculus); assay: Antagonist activity at mouse TRPC6 stably expressed in HEK293 cells assessed as inhibition of calcium influx at 10 uM by calcium fluorescence assay; assay type: cell-based

Compound | inhibition [3] | inhibition ([3]; filed as antagonist) | other results
C=C[C@@](C)(O)CC[C@H]1C(=C)C[C@H](OC(=O)NC)[C@H]2C(C)(C)CCC[C@]12C | – | – | IC50 [1]: 0.0058 µM; IC50 [2]: 0.84 µM
NCCN(Cc1ccc2ccccc2c1)c1nc(C(=O)NC23CC4CC(CC(C4)C2)C3)cs1 | 35.6% | – | –
CCOC(=O)c1csc(NCCN)n1 | 19.3% | – | –
CCOC(=O)c1csc(N(CCNS(N)(=O)=O)Cc2ccc3ccccc3c2)n1 | 0.8% | – | –
CCOC(=O)c1csc(N(CCN)Cc2cccc3ccccc23)n1 | – | 77.6% | –
Cc1sc(Nc2ccc(Cl)cc2F)nc1C(=O)N1CCC[C@H](C)[C@@H]1C | – | – | IC50 [1]: 0.021 µM; IC50 [2]: 0.003 µM
CCOC(=O)c1csc(N(CCN)Cc2ccc3ccccc3n2)n1 | – | 56.6% | –
N#Cc1ccc(O[C@@H]2c3ccccc3C[C@@H]2N2CCC[C@@H](N)C2)cc1 | – | – | IC50 [1]: 0.00022 µM
CCOC(=O)c1csc(N(CCNS(C)(=O)=O)Cc2ccc3ccccc3c2)n1 | 32.4% | – | –
CC1CC(C)CN(C(=O)c2csc(Nc3ccc4c(c3)OCO4)n2)C1 (stereo not drawn) | – | – | IC50 [1]: 0.01 µM; IC50 [2]: 0.01 µM
COc1cccc2sc(N(CCN(C)C)C(=O)c3ccc4c(c3)CCCC4)nc12 | – | 84.8% | IC50 [1]: 4.2 µM; inhibition [4]: 84.4%
CCOC(=O)N1CCC(C)(C2C=C(O)N3N=C(C)C(c4ccc(F)cc4)C3=N2)CC1 (stereo not drawn) | – | – | IC50 [1]: 1 µM
CCOC(=O)c1csc(N(CCN)Cc2ccc3cc(Br)ccc3c2)n1 | – | 56.8% | –
CCOC(=O)c1csc(N(CCN)Cc2c(F)c(F)c(F)c(F)c2F)n1 | 29.2% | – | –
CC(C)(C)c1ccc(Oc2ccc(C(=O)N3CCC(c4ccc(N)nn4)CC3)cc2)cc1 | – | – | IC50 [1]: 0.013 µM
CC1CCCN(C(=O)c2nc(Nc3cc4c(cc3F)OCO4)sc2Cl)C1C (stereo not drawn) | – | – | IC50 [2]: 0.005 µM
CCOC(=O)c1csc(N(CCNC(=O)OC(C)(C)C)C(=O)c2ccc([N+](=O)[O-])cc2)n1 | 30.3% | – | –
Cn1nnc2c(C(N)=O)ncn2c1=O [TEMOZOLOMIDE] | – | – | inhibition in vivo at 50 mg/kg/day (U-87 MG): 36.5%
CCOC(=O)c1csc(N(CCNC(=O)OC(C)(C)C)C(=O)c2ccc(C(F)(F)F)cc2)n1 | 18.7% | – | –
CCOC(=O)c1csc(N(CCN)Cc2cc(F)ccc2Br)n1 | – | 59.5% | –
CC(=O)NCCN(Cc1ccc2ccccc2c1)c1nc(C(=O)Nc2ccc(O)cc2)cs1 | – | – | inhibition [5]: inactive
CCOC(=O)c1csc(N(CCN)Cc2ccc([N+](=O)[O-])cc2)n1 | 28.3% | – | –
CCOC(=O)c1csc(N(CCN)C(=O)c2ccc([N+](=O)[O-])cc2)n1 | 23% | – | –

The next lines start with results.

inhibition [3] | inhibition ([3]; filed as antagonist) | Compound | other results
10.8% | – | NCCN(Cc1cccc(C(F)(F)F)c1)c1nc(C(=O)Nc2ccc(O)cc2)cs1 | –
14.7% | – | CCOC(=O)c1csc(N(CCN)Cc2cccc(F)c2F)n1 | –
18.5% | – | NCCN(Cc1cccc(C(F)(F)F)c1)c1nc(C(=O)Nc2ncc[nH]2)cs1 | –
22.1% | – | CCOC(=O)c1csc(N(CCN)Cc2cccc([N+](=O)[O-])c2)n1 | –
– | 97.9% | CCOC(=O)c1csc(N(CCN)Cc2ccc3ccccc3c2)n1 | –
– | 92.2% | CCOC(=O)c1csc(N(CCN)Cc2cccc(C(F)(F)F)c2)n1 | –
– | 53.3% | CCN(CC)CCNC(=O)c1csc(N(CCN)Cc2ccc3ccccc3c2)n1 | –
– | 40.9% | CCOC(=O)c1csc(N(CCN)Cc2cccc(OC(F)F)c2)n1 | –
– | 44.2% | CCOC(=O)c1csc(N(CCN)C(=O)c2ccc(C(F)(F)F)cc2)n1 | –
– | 81.9% | NCCN(Cc1cccc(C(F)(F)F)c1)c1nc(C(=O)NCCc2ccccc2)cs1 | –
– | 84.6% | CCOC(=O)c1csc(N(CCN)Cc2ccc(C(F)(F)F)cc2)n1 | –
– | 50.6% | CCN(CC)CCNC(=O)c1csc(N(CCN)Cc2cccc(C(F)(F)F)c2)n1 | –
29% | – | NCCN(Cc1ccc2ccccc2c1)c1nc(C(=O)O)cs1 | –
26.1% | – | CCOC(=O)c1csc(N(CCN)Cc2ccc(OC(F)F)cc2)n1 | –
30.5% | – | CCOC(=O)c1csc(N(CCN)Cc2ccccc2)n1 | –
